Where a name gives a salt, the structure may show the parent alone. Read-outs that look alike come from different tables or passages of the source.

This is an account of results in patent US8058243B2, “Method for treating a brain cancer with ifenprodil” (HSC Research and Development Limited Partnership, priority 2006, dated 2011).

For the experiment, the system named is murine neural precursor cells (neurosphere cultures). Nature of the experiment: HTS of LOPAC library against secondary neurosphere cultures, MTT proliferation assay at 3 μM, day 7 (z score, P value). The format is cell-based, mouse.
The mark [1] stands for this setting: primary LOPAC screen, 3 μM, MTT, neurosphere proliferation.
Setting [2] is: yes/no: significantly inhibited neurosphere proliferation in the primary screen.
Setting [3] is: yes/no: significantly inhibited neurosphere proliferation (P<0.01) in primary screen.
Where [4] appears, read: LOPAC primary screen, neurosphere MTT proliferation, 3 μM, day 7.
Where [5] appears, read: yes/no: significantly inhibited neurosphere proliferation (P<0.01) in the primary screen.
Where [6] appears, read: yes/no: significantly inhibited neurosphere proliferation in primary screen.
Where [7] appears, read: LOPAC library screen, 3 μM, MTT, neurosphere cultures.
The mark [8] stands for this setting: yes = significantly inhibited neurosphere proliferation (P<0.01) in the primary screen.
Setting [9] is: LOPAC screen, neurosphere MTT proliferation, 3 μM, day 7.
Setting [10] is: LOPAC library screen at 3 μM, secondary neurosphere cultures, MTT.

Regarding `O=C(O)C=Cc1c[nH]cn1` [4-Imidazoleacrylic acid], the “Z Score” value is −0.2635. This molecule yielded a Z score under setting [1] of −0.264. In addition, the Activity entry under setting [2] was “no”.
For the molecule `N[C@@H](Cc1ccc(O)c(O)c1)C(=O)O` [L-3,4-Dihydroxyphenylalanine], under “168 h, 3 µM”, the “Z Score” value worked out at 2.44 and the Z score is on record as 2.440. Also, the Activity entry under setting [3] is recorded as “no”.
Take `CCCN(CC1CC1)c1nc(C)nc(Nc2c(Cl)cc(Cl)cc2Cl)c1Cl` [NBI 27914]: the “Z Score” value worked out at 0.1345. For the same molecule, the Z score under setting [4] amounted to 0.134. In addition, the Activity result under setting [3] is listed as “no”.
In the case of `N=C(N)NC(=N)Nc1ccccc1` [1-Phenylbiguanide], where the note is “168 h, 3 µM”, the “Z Score” value is given as −2.689 and the Z score is reported as −2.689. Also, the Activity entry under setting [5] is recorded as “yes”.
`CN/C(=N\c1ccc(C2=NNC(=O)CC2C)cc1)NC#N` (centres unmarked) [SKF 94836]: the “Z Score” value came to 0.2458. The molecule also gave a Z score under setting [4] of 0.246. For the same molecule, under setting [6], the Activity result is listed as “no”.
On to `CCn1cc(C(=O)O)c(=O)c2cc3c(cc21)OCO3` [Oxolinic acid], for which the “Z Score” value under setting [7] was 0.9179. In addition, under setting [4], the Z score is listed as 0.918. Moreover, the Activity entry under setting [6] is “no”.
With `Cl.Cl.N=C(N)c1ccc(N)cc1` [4-Aminobenzamidine dihydrochloride], the “Z Score” value is listed as −1.287. Under setting [4], this molecule came in with a Z score of −1.287. Besides, the Activity result under setting [8] is listed as “no”.
For `CC(/C=C/c1cccc(Oc2ccc(F)cc2)c1)N(O)C(N)=O` (centres unmarked) [BWB70C], the “Z Score” value is recorded as −0.8932. This molecule gave a Z score under setting [9] of −0.893. The Activity result under setting [3] is reported as “no”.
In the same order, the values of `CCCN(CCC)C(=O)Cc1c(-c2ccc(Cl)cc2)nc2c(Cl)cc(Cl)cn12` [CB34] are −1.081, −1.081 and “no”.
Consider `COc1cc2c(cc1OC)[C@@H](c1ccccc1)CN(C)CC2.O=C(O)/C=C\C(=O)O` [R(−)-SCH-12679 maleate], for which the “Z Score” value is given as 1.6092. Further, the Z score under setting [1] is recorded as 1.609. The Activity result under setting [2] is reported as “no”.
Regarding `O=C(O)/C=C\C(=O)O.O=C(O)/C=C\C(=O)O.c1cc(CN2CCCCC2)cc(OCCCNc2nc3ccccc3s2)c1` [SKF 95282 dimaleate], under setting [1], the Z score is 0.424. The Activity result under setting [2] is “no”.
For `CCOC(=O)C1=C(C)NC(C)=C(C(=O)OC)C1c1cccc(Cl)c1Cl` (centres unmarked) [Felodipine], the “Z Score” value under setting [10] is −0.9658. In addition, under setting [4], the Z score is −0.966.
For the molecule `Cn1ccnc1` [1-Methylimidazole], for the setting “168 h, 3 µM”, the “Z Score” value is −0.8469 and the Z score was −0.847. Also, the Activity result under setting [8] is listed as “no”.
As to (±)-Pindobind, under setting [4], the Z score amounted to 0.257. Further, under setting [6], the Activity result was “no”.
On to `CCCCC[C@H](CC(=O)NO)C(=O)N[C@H](C(=O)N1CCC[C@H]1CO)C(C)C` [Actinonin], for which, where the note is “168 h, 3 µM”, the “Z Score” value is reported as −3.501 and the Z score is recorded as −3.501. In addition, the Activity entry under setting [8] was “yes”.
As to `Cc1cc(C)c(NC(=O)C[C@H](CC(=O)O)c2cccc3ccccc23)c(C(=O)N2CCC3(CCCC3)CC2)c1` [CR 2945], where the note is “168 h, 3 µM”, the “Z Score” value is reported as 0.5451 and the Z score worked out at 0.545. Moreover, under setting [3], the Activity entry is “no”.
In the same order, the values of `CN(C)C(=O)N=NC(=O)N(C)C` [N,N,N′,N′-Tetramethylazodicarboxamide] are −0.6393, −0.639 and “no”.
Turning to `C[C@H](Cc1ccc(OCC(=O)[O-])cc1)NC[C@H](O)c1cccc(Cl)c1.[Na+]` [BRL 37344 sodium], the “Z Score” value is given as −1.725. In addition, the Z score under setting [9] is −1.725. Further, under setting [3], the Activity entry was “no”.
`CCCNCC(O)COc1ccccc1C(=O)CCc1ccccc1` (centres unmarked) [Propafenone hydrochloride]: the “Z Score” value under setting [10] is given as −0.9673. Under setting [4], this molecule displayed a Z score of −0.967. For the same molecule, under setting [8], the Activity result is given as “no”.
In the case of `C#CCN(C)CCCOc1ccc(Cl)cc1Cl` [Clorgyline hydrochloride], the Activity result is on record as “no”. For the same molecule, under “LOPAC library screen at 3 μM, MTT, secondary neurosphere cultures, screened in singlets”, the “Z Score” value is listed as 1.52. The molecule also came in with a Z score under setting [4] of 1.520.
Regarding `Cl.Cn1ccc2cc(NC(=O)Nc3cccnc3)ccc21` [SB 200646 hydrochloride], the “Z Score” value came to 2.437. For the same molecule, the Z score under setting [1] is listed as 2.437. The Activity entry under setting [2] was “no”.
Regarding `COC(=O)[C@H]1[C@H]2C[C@H]3c4[nH]c5ccccc5c4CCN3C[C@H]2CC[C@@H]1O` [Rauwolscine hydrochloride], under “168 h, 3 µM”, the “Z Score” value is −1.747 and the Z score is −1.747. Also, the Activity entry under setting [6] is “no”.
Regarding `CCCC(C(=O)OCCN(CC)CC)(c1ccccc1)c1ccccc1.Cl` [SKF-525A hydrochloride], the “Z Score” value was −1.928. In addition, the Z score under setting [4] is given as −1.928. Under setting [5], the Activity result is on record as “no”.
Turning to `CC(=O)O[C@H]1C[C@@H]2CC[C@@H]3[C@H](CC[C@@]4(C)[C@H]3C[C@H]([N+]3(C)CCCCC3)[C@@H]4OC(C)=O)[C@@]2(C)C[C@@H]1[N+]1(C)CCCCC1` [Pancuronium bromide], the “Z Score” value under setting [7] is 0.4077. Also, under setting [4], the Z score was 0.408. In addition, the Activity result under setting [6] was “no”.
Turning to `NC(Cc1ccc(Cl)cc1)C(=O)O` (racemic) [(±)-p-Chlorophenylalanine], the Z score under setting [9] is reported as −0.247. In addition, the Activity entry under setting [3] is “no”.
With `CN(C(=O)CCCOc1ccc2[nH]c(=O)ccc2c1)C1CCCCC1` [Cilostamide], the “Z Score” value under setting [7] amounted to 0.1756. For the same molecule, under setting [9], the Z score is 0.176. Moreover, the Activity entry under setting [3] is recorded as “no”.
For the molecule `CCN1C[C@]2(C)CC[C@H](O)[C@]34C1[C@@H](C[C@H]23)[C@@]1(O)C[C@H](OC)[C@H]2C[C@@H]4[C@@H]1[C@H]2O` [Karakoline], the “Z Score” value was −1.625. Further, the Z score under setting [4] is on record as −1.625. In addition, the Activity result under setting [3] is listed as “no”.
Take `NC(=O)CN1CCCC1=O` [Piracetam]: the “Z Score” value under setting [10] is recorded as −0.3758. Further, under setting [4], the Z score is on record as −0.376. Moreover, the Activity entry under setting [8] was “no”.
With `O=C1CCC(c2ccc(-n3ccnc3)cc2)=NN1` [Imazodan], for the setting “168 h, 3 µM”, the “Z Score” value was determined as 0.4616 and the Z score was determined as 0.462. Besides, the Activity entry under setting [3] is on record as “no”.
On to `CCCCCCCC/C=C\CCCCCCCC(=O)O` [Oleic Acid], for which the “Z Score” value under setting [10] was −0.3449.
`CCN(CC)C(C)C(=O)N1c2ccccc2Sc2ccccc21` (stereo not drawn) [10-(alpha-Diethylaminopropionyl)-phenothiazine] returned a Z score under setting [4] of −1.545. The Activity entry under setting [5] is recorded as “no”.
As for `CC[C@@H]1Cc2cc(O)ccc2C2=C1c1ccc(O)cc1C[C@H]2CC`, the “Z Score” value is reported as −1.053. The Z score under setting [4] is −1.053. Besides, the Activity entry under setting [5] is “no”.
As for `O=C(c1ccc(F)cc1)C1CCN(CCn2c(=O)[nH]c3ccccc3c2=O)CC1` [Ketanserin tartrate], where the note is “168 h, 3 µM”, the “Z Score” value was −3.325 and the Z score was −3.325. The Activity result under setting [5] is “yes”.
As to `CCOC(=O)C(C)(C)Oc1ccc(Cl)cc1` [Clofibrate], the “Z Score” value (LOPAC library screen, 3 μM, MTT, secondary neurosphere cultures, day 7) is on record as −1.738. Moreover, under setting [9], the Z score is on record as −1.738.
`NC(CCCP(=O)(O)O)C(=O)O` (centres unmarked) [(B1)-2-Amino-5-phosphonopentanoic acid]: the “Z Score” value was −1.045.
